According to the supplement of paper PMC10307832:

Tests used:
Experiment in all cases: relative viability (nuclei count vs DMSO), 5 days (fraction); higher = more cells survive
[1] = test system: NCI-H647
How it was run: (§1)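 A single step with final 0.05% Triton X-100, 1% formaldehyde and 1 ug/ml Hoechst fixed the cells and stained nuclei 5 days after treatment. Lung cancer cell lines in 1536-well plates had been treated by pin tool the day after seeding with one drug alone or a fixed anchor-drug dose plus five library-drug doses (not always all listed) in √10 steps, and nuclei were counted on 4× images. Relative viability is the ratio of nuclei in treated wells to nuclei in vehicle wells, taken as the median of duplicate plates.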

[2] = test system: HOP-62
How it was run: as §1

[3] = test system: COR-L23
How it was run: as §1

[4] = test system: LC-2-ad
How it was run: as §1

[5] = test system: NCI-H1395
How it was run: as §1

[6] = test system: NCI-H1666
How it was run: as §1

[7] = test system: NCI-H2170
How it was run: as §1

[8] = test system: CAL-12T
How it was run: as §1

[9] = test system: LCLC-103H
How it was run: as §1

[10] = test system: NCI-H2228
How it was run: as §1

[11] = test system: NCI-H1651
How it was run: as §1

[12] = test system: ABC-1
How it was run: as §1

[13] = test system: NCI-H2085
How it was run: as §1

[14] = test system: NCI-H661
How it was run: as §1

[15] = test system: NCI-H1993
How it was run: as §1

[16] = test system: NCI-H23
How it was run: as §1

[17] = test system: NCI-H520
How it was run: as §1

[18] = test system: 201T
How it was run: as §1

[19] = test system: NCI-H2347
How it was run: as §1

[20] = test system: NCI-H838
How it was run: as §1

[21] = test system: NCI-H1355
How it was run: as §1

[22] = test system: HCC-44
How it was run: as §1

[23] = test system: NCI-H322M
How it was run: as §1

O=c1[nH]c2ccccc2n1C1CCN(CCCC(c2ccc(F)cc2)c2ccc(F)cc2)CC1 [Pimozide] + CC(=O)c1c(C)c2cnc(Nc3ccc(N4CCNCC4)cn3)nc2n(C2CCCC2)c1=O [Palbociclib] (partner 0.5 µM)
relative viability ([1]; first compound 0.08 µM): 0.404 | relative viability ([1]; first compound 0.253 µM): 0.509 | relative viability ([1]; first compound 0.8 µM): 0.384 | relative viability ([1]; first compound 2.53 µM): 0.32 | relative viability ([1]; first compound 8 µM): 0.313 | relative viability ([2]; first compound 0.08 µM): 0.412 | relative viability ([2]; first compound 0.253 µM): 0.391 | relative viability ([2]; first compound 2.53 µM): 0.361 | relative viability ([2]; first compound 8 µM): 0.442 | relative viability ([3]; first compound 0.08 µM): 0.291 | relative viability ([3]; first compound 0.253 µM): 0.346 | relative viability ([3]; first compound 0.8 µM): 0.293 | relative viability ([3]; first compound 2.53 µM): 0.267 | relative viability ([3]; first compound 8 µM): 0.307 | relative viability ([4]; first compound 0.08 µM): 0.517 | relative viability ([4]; first compound 0.253 µM): 0.474 | relative viability ([4]; first compound 0.8 µM): 0.475 | relative viability ([4]; first compound 2.53 µM): 0.472 | relative viability ([4]; first compound 8 µM): 0.482 | relative viability ([5]; first compound 0.08 µM): 0.579 | relative viability ([5]; first compound 0.253 µM): 0.655 | relative viability ([5]; first compound 0.8 µM): 0.538 | relative viability ([5]; first compound 2.53 µM): 0.623 | relative viability ([5]; first compound 8 µM): 0.578 | relative viability ([6]; first compound 0.08 µM): 0.603 | relative viability ([6]; first compound 0.253 µM): 0.653 | relative viability ([6]; first compound 0.8 µM): 0.606 | relative viability ([6]; first compound 2.53 µM): 0.715 | relative viability ([6]; first compound 8 µM): 0.666 | relative viability ([7]; first compound 0.08 µM): 0.384 | relative viability ([7]; first compound 0.253 µM): 0.363 | relative viability ([7]; first compound 0.8 µM): 0.365 | relative viability ([7]; first compound 2.53 µM): 0.358 | relative viability ([7]; first compound 8 µM): 0.369 | relative viability ([8]; first compound 0.08 µM): 0.473 | relative viability ([8]; first compound 0.253 µM): 0.416 | relative viability ([8]; first compound 0.8 µM): 0.442 | relative viability ([8]; first compound 2.53 µM): 0.295 | relative viability ([8]; first compound 8 µM): 0.269 | relative viability ([9]; first compound 0.08 µM): 0.451 | relative viability ([9]; first compound 0.253 µM): 0.46 | relative viability ([9]; first compound 0.8 µM): 0.428 | relative viability ([9]; first compound 2.53 µM): 0.444 | relative viability ([9]; first compound 8 µM): 0.489 | relative viability ([10]; first compound 0.08 µM): 0.517 | relative viability ([10]; first compound 0.253 µM): 0.58 | relative viability ([10]; first compound 0.8 µM): 0.606 | relative viability ([10]; first compound 2.53 µM): 0.587 | relative viability ([10]; first compound 8 µM): 0.417 | relative viability ([11]; first compound 0.08 µM): 0.514 | relative viability ([11]; first compound 0.253 µM): 0.466 | relative viability ([11]; first compound 0.8 µM): 0.534 | relative viability ([11]; first compound 2.53 µM): 0.497 | relative viability ([11]; first compound 8 µM): 0.546 | relative viability ([12]; first compound 0.08 µM): 0.527 | relative viability ([12]; first compound 0.253 µM): 0.565 | relative viability ([12]; first compound 0.8 µM): 0.874 | relative viability ([12]; first compound 2.53 µM): 0.614 | relative viability ([12]; first compound 8 µM): 0.462 | relative viability ([13]; first compound 0.08 µM): 0.452 | relative viability ([13]; first compound 0.253 µM): 0.483 | relative viability ([13]; first compound 0.8 µM): 0.438 | relative viability ([13]; first compound 2.53 µM): 0.479 | relative viability ([13]; first compound 8 µM): 0.422 | relative viability ([14]; first compound 0.08 µM): 0.4 | relative viability ([14]; first compound 0.253 µM): 0.412 | relative viability ([14]; first compound 0.8 µM): 0.367 | relative viability ([14]; first compound 2.53 µM): 0.395 | relative viability ([14]; first compound 8 µM): 0.327 | relative viability ([15]; first compound 0.08 µM): 0.616 | relative viability ([15]; first compound 0.253 µM): 0.58 | relative viability ([15]; first compound 0.8 µM): 0.653 | relative viability ([15]; first compound 2.53 µM): 0.556 | relative viability ([15]; first compound 8 µM): 0.558 | relative viability ([16]; first compound 0.08 µM): 0.454 | relative viability ([16]; first compound 0.253 µM): 0.525 | relative viability ([16]; first compound 0.8 µM): 0.435 | relative viability ([16]; first compound 2.53 µM): 0.445 | relative viability ([16]; first compound 8 µM): 0.553 | relative viability ([17]; first compound 0.08 µM): 0.265 | relative viability ([17]; first compound 0.253 µM): 0.22 | relative viability ([17]; first compound 0.8 µM): 0.191 | relative viability ([17]; first compound 2.53 µM): 0.217 | relative viability ([17]; first compound 8 µM): 0.213 | relative viability ([18]; first compound 0.08 µM): 0.363 | relative viability ([18]; first compound 0.253 µM): 0.356 | relative viability ([18]; first compound 0.8 µM): 0.337 | relative viability ([18]; first compound 2.53 µM): 0.314 | relative viability ([18]; first compound 8 µM): 0.342 | relative viability ([19]; first compound 0.08 µM): 0.432 | relative viability ([19]; first compound 0.253 µM): 0.418 | relative viability ([19]; first compound 0.8 µM): 0.463 | relative viability ([19]; first compound 2.53 µM): 0.455 | relative viability ([19]; first compound 8 µM): 0.407 | relative viability ([20]; first compound 0.08 µM): 0.252 | relative viability ([20]; first compound 0.253 µM): 0.251 | relative viability ([20]; first compound 0.8 µM): 0.203 | relative viability ([20]; first compound 2.53 µM): 0.244 | relative viability ([20]; first compound 8 µM): 0.215 | relative viability ([21]; first compound 0.08 µM): 0.338 | relative viability ([21]; first compound 0.253 µM): 0.387 | relative viability ([21]; first compound 0.8 µM): 0.329 | relative viability ([21]; first compound 2.53 µM): 0.388 | relative viability ([21]; first compound 8 µM): 0.407 | relative viability ([22]; first compound 0.08 µM): 0.975 | relative viability ([22]; first compound 0.253 µM): 0.982 | relative viability ([22]; first compound 0.8 µM): 0.946 | relative viability ([22]; first compound 2.53 µM): 0.925 | relative viability ([22]; first compound 8 µM): 0.859 | relative viability ([23]; first compound 0.08 µM): 0.416 | relative viability ([23]; first compound 0.253 µM): 0.475 | relative viability ([23]; first compound 0.8 µM): 0.483 | relative viability ([23]; first compound 2.53 µM): 0.492 | relative viability ([23]; first compound 8 µM): 0.505
